In the assay the target is T1, human FPTase (Homo sapiens, UniProt P49354+P49356).
T1 construct: made in house
The experiment in a line: In vitro inhibition of human FPTase. The class given is biochemical. To be noted: 100 nM Ras-CVIM substrate, [3H]-FPP, 30 min; read-out: IC50 against human FPTase.

Where a name gives a salt, the structure may show the parent alone.

In the case of `CCCCCN(Cc1cncn1Cc1ccc(C#N)cc1)C(=O)N(C)c1cccc(Cl)c1` [Example 2, N-(3-chlorophenyl)-N-methyl-N'-[1-(4-cyanobenzyl)-5-imidazolylmethyl]-N'-(n-pentyl)urea hydrochloride], the IC50 is below 10 µM.

As to `CCCCCN(Cc1cncn1Cc1ccc(C#N)cc1)C(=O)Nc1cccc(Cl)c1` [Example 1, N-(3-chlorophenyl)-N'-[1-(4-cyanobenzyl)-5-imidazolylmethyl]-N'-(n-pentyl)urea hydrochloride], the IC50 was below 10 µM.

As a reminder, the IC50 is the point on the concentration scale where inhibition reaches its midpoint.

Source of the values: US6028201A, “Inhibitors of farnesyl-protein transferase” (Merck & Co., Inc., priority 1998, dated 2000).
